US20230414778A1, “COMBINATION OF ANTIBODY-DRUG CONJUGATE WITH ANTI-SIRPalpha ANTIBODY” (DAIICHI SANKYO COMPANY, LIMITED, priority 2020, published 2023)

Columns and labels:
[1] = test system: CT26.WT cells; assay: Evaluation of in vivo ICD induction (vaccination effect, re-challenge); set-up: species or system BALB/c mice; settings: mice inoculated with drug-treated CT26.WT cells, n=6
Description: Cells of mouse colorectal cancer cell line CT26.WT were seeded in a cell-culture flask and cultured overnight. The supernatant was removed and the cells were washed twice with PBS. To induce ICD, compound (A) (4 μM) or MTX (1 μM) was added in a RPMI1640 culture solution containing 10% FBS (R10). Twenty four hours later, HMGB1 in the culture supernatant was measured in accordance with the method shown in Example 1 in order to confirm ICD induction.
For evaluating in vivo ICD, the culture supernatant was removed from each of the culture flasks treated with drugs and the cells were washed twice with PBS, and then cells were collected. The supernatant was removed and the cells were washed once with PBS to prepare a suspension containing 5.0×10^6 cells/mL. As a control, a suspension was prepared by adding CT26.WT cells, which were cultured in a RPMI1640 culture solution containing 10% FBS without a drug, in an amount of 5.0×10^6 cells/mL, in the same manner as above. After centrifugation, the supernatant was removed. The cells were subjected to a freeze-thaw process repeatedly three times and suspended again in PBS to obtain Necrotic cell death (NCD) cells.
The cells (5.0×10^6 cells) of each group mentioned above were subcutaneously inoculated into the right axilla of each of female 6 week-old BALB/c mice (BALB/c AnNCrlCrlj) (bred by CHARLES RIVER LABORATORIES JAPAN, INC.) (inoculation, Day 0). An anti-SIRPα antibody (clone: 5C12) or an anti-CD47 antibody (clone: MIAP410, manufactured by Bio X Cell, Inc.) was intraperitoneally administered at a dose of 10 mg/kg on Day 1 and 5 (two times in total). As a control, the same amount of PBS was administered. Seven days later, CT26.WT cells (3.0×10^6 cells) not treated with a drug were subcutaneously inoculated into the left axilla of each of the mice (re-challenge, Day 0). On Day 14, tumor volumes were measured to evaluate vaccination effect. Note that the number of mice per group was 6. The results of the NCD-PBS group and individual groups were compared in accordance with the Dunnett's test, P value was expressed to four decimal places. The results satisfying P<0.05 (two-sided test) were determined as being significant.

[2] = test system: spleen cells (CD4-positive / CD8-positive T cells, Tcm); assay: FCM analysis of spleen cells (T cell populations); type: in vivo, mouse; settings: for ratio occupied by Tcm in CD4-positive T cells compared to NCD treatment group: PBS administration (FIG. 29A); for ratio occupied by Tcm in CD8-positive T cells compared to NCD treatment group: PBS administration (FIG. 29B); for ratio occupied by CD4-positive T cells in the whole cells / ratio occupied by CD8-positive T cells in the whole cells: plus anti-SIRPα antibody (5C12) (FIG. 30C)
Description: From each of the mice used in Example 3, the spleen was excised out and spleen cells were prepared by use of PBS and seeded in a 96-well (round bottom) plate at 1×10^6 cells/well. After centrifugation was carried out at 1200 rpm for 3 minutes, the supernatant was removed. […] (manufactured by Biolegend, Inc.) diluted to 1/20 with PBS was added up to 100 μL/well. After standing at room temperature for 30 minutes, centrifugation was carried out at 1200 rpm for 3 minutes. The supernatant was removed, and primary-antibody solutions (FITC anti-CD36 antibody, PerCP anti-CD4 antibody, PE/Cy7 anti-CD8a antibody, APC anti-CD62L antibody, and APC/Cy7 anti-CD44 antibody: all manufactured by Biolegend, Inc.) were diluted with FACS buffer (1 mM EDTA, 5% FBS) and added in an amount of 50 μL/well. After standing in a dark place at 4° C. for 25 minutes, centrifugation was carried out at 1200 rpm for 3 minutes, and then the supernatant was removed. Washing was carried out twice with FACS buffer (200 μL/wells). After centrifugation, the supernatant was removed. A suspension was made with Stabilizing Fixative (manufactured by Becton, Dickinson and Company) and allowed to stand at room temperature for 10 minutes. Measurement was carried out by flow cytometry (FACS CantoII: manufactured by Becton, Dickinson and Company). Data were analyzed by use of FlowJo (manufactured by TreeStar Inc). Comparison between the NCD group and each of the drug treatment groups, or comparison among the PBS administration group, the anti-SIRPα antibody group and an anti-CD47 antibody group in each of the cell treatment groups was made in accordance with the Dunnett's multiple comparison. P value was expressed to four decimal places and the results satisfying P<0.05 (two-sided test) were determined as being significant.
Note that individual populations in the CD4-positive T cells and CD8-positive T cells were identified in the following conditions.
Tcm: central memory T cells [CD44(+) CD62L(+)]

[3] = PBS administration, re-challenge, Day 14
[4] = plus anti-SIRPα antibody (clone 5C12) 10 mg/kg i.p. Day 1 and 5
[5] = plus anti-CD47 antibody (MIAP410) (FIG. 30A)
[6] = plus anti-CD47 antibody (MIAP410) (FIG. 30B)
[7] = plus anti-SIRPα antibody (5C12) (FIG. 30A)
[8] = plus anti-SIRPα antibody (5C12) (FIG. 30B)

SMILES | number of CR individuals (engraftment of re-challenged tumor rejected) [1, 3] | number of CR individuals (engraftment of re-challenged tumor rejected) [1, 4] | ratio occupied by Tcm in CD4-positive T cells compared to NCD treatment group [2] | ratio occupied by Tcm in CD8-positive T cells compared to NCD treatment group [2] | ratio occupied by Tcm in CD4-positive T cells compared to the _PBS group of the same drug [2, 5] | ratio occupied by Tcm in CD8-positive T cells compared to the _PBS group of the same drug [2, 6] | ratio occupied by Tcm in CD4-positive T cells compared to the _PBS group of the same drug [2, 7] | ratio occupied by Tcm in CD8-positive T cells compared to the _PBS group of the same drug [2, 8] | ratio occupied by CD4-positive T cells in the whole cells [2] | ratio occupied by CD8-positive T cells in the whole cells [2] | number of CR individuals (engraftment of re-challenged tumor rejected) ([1]; plus anti-CD47 antibody (clone MIAP410) 10 mg/kg i.p. Day 1 and 5)
O=C1c2c(O)ccc(O)c2C(=O)c2c(NCCNCCO)ccc(NCCNCCO)c21 [MTX, Mitoxantrone, reference compound] | 2/6 | 4/6 | significantly increased | significantly increased | tendency to increase | tendency to increase | tendency to increase | significantly increased | tendency to increase | significantly increased | 
CC[C@@]1(O)C(=O)OCc2c1cc1n(c2=O)Cc2c-1nc1cc(F)c(C)c3c1c2[C@@H](NC(=O)CO)CC3 [compound (A)] | 5/6 | all cases show CR | significantly increased | significantly increased | significantly decreased | significantly decreased | tendency to increase | substantially the same value | significantly increased | tendency to increase | all cases show CR
